Like-named read-outs stand apart in the source and are kept apart here.
Key:
HeLa cancer cell line = experiment: Cell proliferation resazurin assay, HeLa; format: cell-based, human; conditions: 24 h incubation
Description: (§1) The proliferation of HeLa, BxPC-3, RD, and MDCK cells was assessed using resazurin. Triplicate cultures of 1 × 10^4 cells in 100 μL of medium were incubated at 37 °C, 3% CO2, in 96-well plates. Compounds were dissolved in DMSO to form 1 × 10⁻^2 M solutions, then diluted with media and added to wells for a 24 h incubation. Following this, 20 μL of resazurin solution was added and incubated for 4 h. Absorbance was measured at 570 nm and 600 nm.
(§2) Percentage inhibition was calculated as follows:(2) I (%)=100−Abs570 nmsample−Abs600 nmsample /[…]−Abs600 nmcontrol ×100
(§3) The formula accounts for absorbance differences at 570 nm and 600 nm to determine cell viability.
(§4) The half maximal inhibitory concentration (IC50) indicated the effectiveness of the compounds on cell lines, as defined by FDA guidelines as the concentration needed for 50% inhibition in vitro. Toxicity was assessed via the median lethal concentration (LC50), the concentration causing death in 50% of juvenile daphnids, calculated using a dose–response equation via least squares fitting. All data are presented as mean ± standard deviation (SD). Statistical analyses were conducted with specialized software.

LNCaP cancer cell line = experiment: Cell proliferation MTT assay, LNCaP; format: cell-based, human; conditions: 24 h incubation
Description: (§5) The MTT assay, a colorimetric method, quantifies viable cells to evaluate cytotoxic effects on LNCaP, MCF-7, HepG-2, and K-562 cell lines. It measures the conversion of MTT to insoluble formazan by mitochondrial succinate dehydrogenase in active cells, reflecting cell viability. Compounds were dissolved in saline and DMSO (≤0.1%) and tested at 0.1, 1, and 10 μM concentrations, following Mosmann’s method.
(§6) Suspension cells were centrifuged, and adherent cells were trypsinized then diluted to 5 × 10⁴ cells/mL in RPMI 1640 with 10% fetal bovine serum. Subsequently, 5 × 10^3 cells in 100 μL were plated in 96-well plates and incubated for attachment. After adding compounds, cells were incubated for 24 h at 37 °C and 3% CO2. MTT reagent was introduced, and cells were monitored for formazan presence under a microscope.
(§7) Upon observing purple precipitate, detergent reagent was added, and plates were kept in the dark for 4 h. Absorbance was measured at 540 nm using a BioTek reader (Agilent, Santa Clara, CA, USA). Results, indicating percent inhibition, were calculated using the following formula:(3) I (%)=100−Abs540 nmsample /Abs540 nmcontrol ×100
(§8) IC50 values were determined as a measure of compound efficacy on cancer cell proliferation.

HL-60 cancer cell line = experiment: Antiproliferative activity, HL-60; format: cell-based, human
RD cancer cell line = experiment: Cell proliferation resazurin assay, RD; format: cell-based, human; conditions: 24 h incubation
Description: as §1, §2, §3, §4

K-562 cancer cell line = experiment: Cell proliferation MTT assay, K-562; format: cell-based, human
Description: as §5, §6, §7, §8

MDCK normal cell line = experiment: Cell proliferation resazurin assay, MDCK normal cell line; format: cell-based, canine; conditions: 24 h incubation
Description: as §1, §2, §3, §4

BxPC-3 cancer cell line = experiment: Cell proliferation resazurin assay, BxPC-3; format: cell-based, human; conditions: BxPC-3, 24 h incubation
Description: as §1, §2, §3, §4

MCF-7 cancer cell line = experiment: Cell proliferation MTT assay, MCF-7; format: cell-based, human
Description: as §5, §6, §7, §8

HepG-2 cancer cell line = experiment: Cell proliferation MTT assay, HepG-2; format: cell-based, human
Description: as §5, §6, §7, §8

Daphnia magna = experiment: in vivo; conditions: pH 7
Description: Toxicity testing for certain substances was conducted using Daphnia magna, following ISO 6341:2012 guidelines. Daphnia magna were cultured parthenogenetically at the Institute of Zoology and fed Chlorella vulgaris grown aseptically. The algal medium included CaCl2, NaHCO3, KCl, and MgSO4·7H2O, with pH adjusted to 7.0 and O2 ≥ 6.00 mg/L. Juvenile daphnids were cultured in 24-well plates, each holding 10 daphnids in 1000 μL of each compound dilution. The bioassay tested concentrations from 0.1 to 100 μM to determine LC50, using doxorubicin as the positive control and a 0.1% DMSO solution as the negative control. The daphnids were incubated at 22 ± 2 °C with a 16 h/8 h light/dark cycle.
The experiment was conducted in triplicate to ensure accuracy.
as §4

[1] = system: HeLa, RD, and BxPC-3 cancer cell lines; experiment: Antiproliferative activity, summary over HeLa, RD and BxPC-3 cell lines; format: cell-based; conditions: Homo sapiens; range over the three cancer cell lines; read-out: IC50 range against HeLa, RD, and BxPC-3 cell lines
Description: as §1, §2, §3, §4

[2] = Homo sapiens, K562, K-562, 24 h incubation
[3] = Homo sapiens, MCF7, MCF-7, 24 h incubation
[4] = Homo sapiens, HepG2, HepG-2, 24 h incubation
[5] = other: immersion in compound dilution

Structure (SMILES) | IC50 (HeLa cancer cell line) | IC50 (RD cancer cell line) | IC50 (BxPC-3 cancer cell line) | IC50 (HeLa cancer cell line; Homo sapiens) | IC50 (LNCaP cancer cell line; Homo sapiens) | IC50 (HL-60 cancer cell line; Homo sapiens) | IC50 (RD cancer cell line; Homo sapiens) | IC50 (K-562 cancer cell line; [2]) | IC50 (BxPC-3 cancer cell line; Homo sapiens) | IC50 (MCF-7 cancer cell line; [3]) | IC50 (HepG-2 cancer cell line; [4]) | IC50 (MDCK normal cell line) | IC50 (MDCK normal cell line; Canis lupus familiaris) | LC50 at 24 h (Daphnia magna; [5]) | other results
[NH2][Pt]([NH2])([Cl])[Cl] [CDDP, cisplatin, reference compound] | 30900 ± 1200 nM | 4600 ± 600 nM | 11200 ± 1300 nM |  |  |  |  |  |  |  |  | 1500 ± 300 nM |  |  | 
COc1cccc2c1C(=O)c1c(O)c3c(c(O)c1C2=O)C[C@@](O)(C(=O)CO)C[C@@H]3O[C@H]1C[C@H](N)[C@H](O)[C@H](C)O1 [DOXO, doxorubicin, reference compound] |  |  |  | 6200 ± 500 nM | 1100 ± 20 nM | 1000 ± 300 nM | 16200 ± 1400 nM | 400 ± 30 nM | 6000 ± 100 nM | 14000 ± 1500 nM | 2800 ± 1100 nM |  | 10800 ± 1200 nM |  | LC50 at 24 h (Daphnia magna): 3600 nM
COc1ccccc1NC(=S)N/N=C/c1ccccn1 [HL^1, N-(2-Methoxyphenyl)-2-[(pyridin-2-yl)methylidene] hydrazine-1-carbothioamide] |  |  |  | 81200 ± 5300 nM | 100000 ± 4900 nM | 40 ± 6 nM | 100000 ± 4200 nM | 10000 ± 1200 nM | 100 ± 50 nM | 10000 ± 1200 nM | 800 ± 40 nM |  | 10100 ± 1200 nM | 15000 nM | 
COc1cccc(NC(=S)N/N=C/c2ccccn2)c1 [HL^2, N-(3-Methoxyphenyl)-2-[(pyridin-2-yl)methylidene] hydrazine-1-carbothioamide] |  |  |  | 100 ± 10 nM | 900 ± 50 nM | 10 ± 4 nM | 200 ± 30 nM | 900 ± 50 nM | 100 ± 40 nM | 3500 ± 500 nM | 600 ± 60 nM |  | 400 ± 60 nM | 13000 nM | IC50 [1]: 100 to 200 nM
COc1ccc(NC(=S)N/N=C/c2ccccn2)cc1 [HL^3, N-(4-Methoxyphenyl)-2-[(pyridin-2-yl)methylidene] hydrazine-1-carbothioamide] |  |  |  | 100000 ± 5900 nM | 100000 ± 4200 nM | 10 ± 1 nM | 500 ± 40 nM | 10000 ± 1600 nM | 2100 ± 200 nM | 100000 ± 4600 nM | 52000 ± 10 nM |  | 100000 ± 4600 nM | 35000 nM | IC50 [1]: 500 to 100000 nM
COc1cccc(NC(=S)N/N=C(\C)c2ccccn2)c1 [HL^4, N-(3-Methoxyphenyl)-2-[1-(pyridin-2-yl)ethylidene] hydrazine-1-carbothioamide] |  |  |  | 5800 ± 1200 nM | 100000 ± 3100 nM | 60 ± 4 nM | 11600 ± 500 nM | 16000 ± 2200 nM | 100 ± 30 nM | 55000 ± 2100 nM | 3100 ± 300 nM |  | 14900 ± 1600 nM | 14000 nM | IC50 [1]: 100 to 11000 nM
COc1cccc(NC(=S)N/N=C(/c2ccccc2)c2ccccn2)c1 [HL^5, N-(3-Methoxyphenyl)-2-[phenyl (pyridin-2-yl)methylidene] hydrazine-1-carbothioamide] |  |  |  | 100000 ± 4200 nM | 8100 ± 1200 nM | 20 ± 6 nM | 500 ± 60 nM | 100 ± 10 nM | 3200 ± 300 nM | 5200 ± 600 nM | 300 ± 10 nM |  | 100000 ± 3800 nM | 45000 nM | IC50 [1]: 500 to 100000 nM

Second part, led by results:

IC50 (HeLa cancer cell line) | IC50 (RD cancer cell line) | IC50 (BxPC-3 cancer cell line) | IC50 (HeLa cancer cell line; Homo sapiens) | IC50 (LNCaP cancer cell line; Homo sapiens) | IC50 (HL-60 cancer cell line; Homo sapiens) | IC50 (RD cancer cell line; Homo sapiens) | IC50 (K-562 cancer cell line; [2]) | IC50 (BxPC-3 cancer cell line; Homo sapiens) | IC50 (MCF-7 cancer cell line; [3]) | IC50 (HepG-2 cancer cell line; [4]) | Structure (SMILES) | IC50 (MDCK normal cell line) | IC50 (MDCK normal cell line; Canis lupus familiaris) | LC50 at 24 h (Daphnia magna; [5]) | other results
800 ± 40 nM | 100 ± 10 nM | 100 ± 20 nM |  |  |  |  |  |  |  |  | COc1ccccc1NC(=NN=Cc1ccccn1)[S][Cu][Cl] [C1, [Cu(L^1)Cl]] | 300 ± 20 nM |  |  | IC50 (LNCaP cancer cell line): 45000 ± 2100 nM; IC50 (HL-60 cancer cell line): 35000 ± 2100 nM; IC50 (K-562 cancer cell line; K-562, 24 h incubation): 64000 ± 1400 nM; IC50 (MCF-7 cancer cell line; MCF-7, 24 h incubation): 100000 ± 4200 nM; IC50 (HepG-2 cancer cell line; HepG-2, 24 h incubation): 68000 ± 4200 nM
800 ± 30 nM | 100 ± 10 nM | 100 ± 10 nM |  |  |  |  |  |  |  |  | COc1ccccc1NC(=NN=Cc1ccccn1)[S][Cu][O][N+](=O)[O-] [C2, [Cu(L^1)NO3]] | 600 ± 30 nM |  |  | IC50 (LNCaP cancer cell line): 800 ± 30 nM; IC50 (HL-60 cancer cell line): 30 ± 1 nM; IC50 (K-562 cancer cell line; K-562, 24 h incubation): 500 ± 10 nM; IC50 (MCF-7 cancer cell line; MCF-7, 24 h incubation): 100 ± 50 nM; IC50 (HepG-2 cancer cell line; HepG-2, 24 h incubation): 400 ± 50 nM
100 ± 10 nM | 100 ± 60 nM | 100 ± 50 nM |  |  |  |  |  |  |  |  | COc1cccc(NC(=NN=Cc2ccccn2)[S][Cu][O][N+](=O)[O-])c1 [C4, [Cu(L^2)NO3]] | 1300 ± 400 nM |  |  | 
26100 ± 1200 nM | 19700 ± 2400 nM | 9400 ± 1200 nM |  |  |  |  |  |  |  |  | COc1ccc(NC(=NN=Cc2ccccn2)[S][Cu][Cl])cc1 [C5, [Cu(L^3)Cl]] | 26600 ± 2400 nM |  |  | 
1100 ± 50 nM | 1200 ± 30 nM | 100 ± 40 nM |  |  |  |  |  |  |  |  | COc1ccc(NC(=NN=Cc2ccccn2)[S][Cu][O][N+](=O)[O-])cc1 [C6, [Cu(L^3)NO3]] | 2100 ± 1500 nM |  |  | IC50 (LNCaP cancer cell line): 300 ± 40 nM; IC50 (HL-60 cancer cell line): 30 ± 6 nM; IC50 (K-562 cancer cell line; K-562, 24 h incubation): 30 ± 2 nM; IC50 (MCF-7 cancer cell line; MCF-7, 24 h incubation): 600 ± 30 nM; IC50 (HepG-2 cancer cell line; HepG-2, 24 h incubation): 600 ± 30 nM
100 ± 40 nM | 500 ± 60 nM | 200 ± 50 nM |  |  |  |  |  |  |  |  | COc1cccc(NC(=NN=C(C)c2ccccn2)[S][Cu][O][N+](=O)[O-])c1 [C7, [Cu(L^4)NO3]] | 900 ± 40 nM |  |  | 
100 ± 30 nM | 200 ± 40 nM | 100 ± 70 nM |  |  |  |  |  |  |  |  | COc1cccc(NC(=NN=C(C)c2ccccn2)[S][Cu][Cl])c1 [C8, [Cu(L^4)Cl]] | 1100 ± 60 nM |  |  | 

— paper PMC11676775, “Novel Copper(II) Coordination Compounds Containing Pyridine Derivatives of N^4-Methoxyphenyl-Thiosemicarbazones with Selective Anticancer Activity” (Molecules, 2024)
